Data taken from patent publication US20150275313A1, “MARKER FOR DIAGNOSIS OF BLADDER CANCER RECURRENCE” (Dong-A University Research Foundation For Industry-Academy …, priority 2014, published 2015).

Assays:
Format in all cases: cell-based
FOXM1 and CCNB1 genes = experiment: Expression of FOXM1 and CCNB1 genes in bladder cancer cell lines treated with doxorubicin; conditions: invasive cell lines (5637, EJ); doxorubicin 0 to 50 μM for 12 hours or 24 hours; FIG. 9B
Description: (§1) Further, the inventors of the present disclosure studied expression of FOXM1, CCNB1 genes, and FANCB, FANCC, and FANCD2 genes relevant to Fanconi anemia pathways after non-muscle invasive cell lines (UC5, UC9) and invasive cell lines (5637, EJ) were treated with doxorubicin used as an anticancer drug for bladder cancer at a concentration of 0 to 50 μM for 12 hours or 24 hours.

[1] = tested on: invasive cell lines (5637, EJ); experiment: Cell viability of bladder cancer cell lines treated with doxorubicin; conditions: invasive cell lines (5637, EJ) compared with non-muscle invasive cell lines (UC5, UC9); doxorubicin 0 to 50 μM for 12 hours or 24 hours; FIG. 9A
[2] = tested on: FANCB, FANCC, and FANCD2 genes; experiment: Expression of DNA repair genes in bladder cancer cell lines treated with doxorubicin; conditions: non-muscle invasive cell lines (UC5, UC9) and invasive cell lines (5637, EJ); doxorubicin 0 to 50 μM for 12 hours or 24 hours; FIG. 9C
Description: as §1
Furthermore, in the non-muscle invasive cell lines (UC5, UC9) and invasive cell lines (5637, EJ) treated as described above, expression of the genes relevant to DNA repair was checked.

COc1cccc2c1C(=O)c1c(O)c3c(c(O)c1C2=O)C[C@@](O)(C(=O)CO)C[C@@H]3O[C@H]1C[C@H](N)[C@H](O)[C@H](C)O1 [doxorubicin]
high: expression of FOXM1 and CCNB1 genes (FOXM1 and CCNB1 genes) | cell viability [1] | expression of the FANCB, FANCC, and FANCD2 genes relevant to Fanconi anemia pathways [2]
